{"source": "paper PMC10439230", "about": "(Scientific Reports, 2023)", "key": {"[1]": {"test_system": "MOLT-3 (T cell acute lymphoblastic leukemia)", "assay": "Cytotoxic activity assay (XTT)", "format": "cell-based, human"}, "[2]": {"test_system": "HL-60 (acute promyelocytic leukemia)", "assay": "Cytotoxic activity assay (XTT)", "format": "cell-based, human", "procedure,_shortened": "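HL-60 human acute promyelocytic leukemia cells, handled as suspension cells, were plated in 96-well plates at 75 µL and 5000–20,000 cells per well. They were kept for 30 min at 37 °C in 95% humidity and 5% CO2. An equal volume of medium carrying test compound was then added for 48 h. Viability was measured by XTT: 75 µL reagent per well, 4 h incubation, and orange formazan absorbance read at 492 nm against a 690 nm reference.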"}, "[3]": {"test_system": "MDA-MB-231 cells", "assay": "Cell morphology of treated cells (microscopy)", "format": "cell-based, human", "details": "MDA-MB-231, 25–50 µM", "method": "(§1) Mode of cell death induced by compound 4l was explored using MDA-MB-231 cells by observing change in cell morphology and flow cytometric analysis of annexin V/7-AAD double stained cells. […] Accidental cell death necrosis is typically indicated by the immediate production of bubbles on the cell surface after treatment. […] Additionally, vacuole accumulation was not observed in the treated cells until 48 h after treatment (Fig. 3a). Taken together, we hypothesized that 4l-induced cell death in MDA-MB-231 cells was not processed through necrosis or vacuole-presenting regulated cell death such as autophagy."}, "[4]": {"test_system": "phospho-FAK (Y397)", "assay": "Western blot analysis of FAK phosphorylation", "format": "cell-based, human", "details": "MDA-MB-231 cells, 25–50 µM, 24 h", "method": "(§2) We further investigated targets of compound 4l on cell survival signaling pathways including EGFR, FAK, Akt, and ERK in MDA-MB-231 cells. After treatment with 4l at concentrations of 25–50 µM for 24 h, activation (phosphorylation) of the signaling pathways was determined by using western blot analysis.\n(§3) MDA-MB-231 cells in 6-well culture plates (1 × 10^6 cells/well) were treated with tested compounds for 24 h. Then the cells were harvested and western blot analysis was used to detect alteration of targeted proteins in the treated cells, as previously described. Briefly, the cells in 6-well culture plates were scraped in RIPA cell lysis buffer supplemented with protease/phosphatase inhibitor cocktail before being lysed by sonication. Cell lysates were centrifuged at 12,000×g for 5 min, at 4 °C, to remove cell debris. Total proteins (20 μg) in the cell lysates were separated by SDS-PAGE and blotted to PVDF membranes. The membranes were blocked with 3% (w/v) BSA and incubated overnight at 4 °C with primary antibodies specific to the following proteins: EGFR, phospho-EGFR (Y845), FAK, phospho-FAK (Y397), Akt, phospho-Akt (S473), ERK, and phospho-ERK (T202/Y204). […] Bands of specific proteins were detected by using SuperSignal™ ECL substrates and visualized on X-ray films."}, "[5]": {"test_system": "phospho-EGFR (Y845)", "assay": "Western blot analysis of EGFR phosphorylation", "format": "cell-based, human", "details": "MDA-MB-231 cells, 25–50 µM, 24 h", "method": "as §2, §3"}, "[6]": {"test_system": "phospho-Akt (S473)", "assay": "Western blot analysis of Akt phosphorylation", "format": "cell-based, human", "details": "MDA-MB-231 cells, 25–50 µM, 24 h", "method": "as §2, §3"}, "[7]": {"test_system": "MDA-MB-231 cells", "assay": "Cell death analysis, annexin V/7-AAD double staining, flow cytometry", "format": "cell-based, human", "method": "as §1\nBriefly, MDA-MB-231 cells were seeded into 6-well culture plates at 1 × 10^6 cells/well and left in a CO2 incubator for 24 h. Subsequently, the cells were treated with tested compounds for 24–48 h. DMSO was used as a vehicle and its final concentration was kept at 0.2% (v/v) throughout the study. The treated cells were harvested by trypsinization and subjected to annexin V/7-AAD double staining using Muse® Annexin V & Dead Cell Kit as previously described. The stained cells were analyzed by flow cytometric technique using Muse® Cell Analyzer. Population of annexin V-positive cells was defined as early apoptotic cells, and the population positive for both annexin V and 7-AAD was defined as late apoptotic cells. The sequential events of increasing early and late apoptotic cell populations over time is a characteristic of apoptotic cell death."}, "[8]": {"test_system": "MRC-5 normal embryonic lung fibroblast cell line", "assay": "Cytotoxic activity assay (MTT), normal cells", "format": "cell-based", "details": "Homo sapiens, MRC5, 48 h exposure, read-out: Cell lines, IC50 (μM) MRC-5", "procedure,_shortened": "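Viability after 48 h compound treatment is determined by MTT reduction, with dissolved purple formazan read at 550 nm against a 650 nm reference. Adherent cells are seeded at 5000–20,000 per well and grown 24 h at 37 °C beforehand.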"}, "[9]": {"test_system": "HeLa (cervical carcinoma)", "assay": "Cytotoxic activity assay (MTT)", "format": "cell-based, human", "procedure,_shortened": "(§4)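 Cells were plated at densities matched to growth rate (5000–20,000 per well) and allowed to attach for 24 h before compounds were added at predetermined concentrations. After 48 h of exposure, MTT was added for 2.5–4 h and formazan absorbance measured at 550 nm.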"}, "[10]": {"test_system": "H69AR (multidrug-resistant small cell lung carcinoma)", "assay": "Cytotoxic activity assay (MTT)", "format": "cell-based, human", "procedure,_shortened": "as §4"}, "[11]": {"test_system": "A549 (lung adenocarcinoma)", "assay": "Cytotoxic activity assay (MTT)", "format": "cell-based, human", "procedure,_shortened": "as §4"}, "[12]": {"test_system": "HepG2 (hepatocellular carcinoma)", "assay": "Cytotoxic activity assay (MTT)", "format": "cell-based, human", "procedure,_shortened": "as §4"}, "[13]": {"test_system": "T-47D (hormone-dependent breast cancer)", "assay": "Cytotoxic activity assay (MTT)", "format": "cell-based, human", "procedure,_shortened": "as §4"}, "[14]": {"test_system": "HuCCA-1 (cholangiocarcinoma derived from a patient)", "assay": "Cytotoxic activity assay (MTT)", "format": "cell-based, human", "procedure,_shortened": "as §4"}, "[15]": {"test_system": "MDA-MB-231 (triple-negative breast cancer)", "assay": "Cytotoxic activity assay (MTT)", "format": "cell-based, human", "procedure,_shortened": "as §4"}, "[16]": {"test_system": "phospho-ERK (T202/Y204)", "assay": "Western blot analysis of ERK phosphorylation", "format": "cell-based, human", "details": "MDA-MB-231 cells, 25–50 µM, 24 h", "method": "as §2, §3"}, "[17]": {"details": "SI = IC50 normal cell (MRC-5)/ IC50 cancer cell"}}}
{"molecule": "C=C1CC[C@H]2C(C)(C)CCC[C@]2(C)[C@H]1CC/C(C)=C/C(=O)NOC1CCCCO1", "note": "(stereo partly drawn) [Compound 4l, (E)-3-Methyl-N-((tetrahydro-2H-pyran-2-yl)oxy)-5-((1S,4aS,8aS)-5,5,8a-trimethyl-2-methylenedecahydronaphthalen-1-yl)pent-2-enamide]", "values": [{"measurement": "IC50", "setting": "[1]; Homo sapiens, MOLT-3, 48 h exposure, XTT, read-out: Cell lines, IC50 (μM) MOLT-3", "value": "26.2 ± 1.76", "unit": "µM"}, {"measurement": "Selectivity Index (SI) values MOLT-3", "setting": "[1]; [17]", "value": 1.5}, {"measurement": "IC50", "setting": "[2]; Homo sapiens, HL-60, 48 h exposure, XTT, read-out: Cell lines, IC50 (μM) HL-60", "value": "21.4 ± 0.31", "unit": "µM"}, {"measurement": "Selectivity Index (SI) values HL-60", "setting": "[2]; [17]", "value": 1.9}, {"measurement": "necrosis (immediate formation of bubbles on cell surface)", "setting": "[3]; 24–48 h", "value": "did not induce necrosis"}, {"measurement": "vacuole accumulation", "setting": "[3]; until 48 h after treatment", "value": "not observed"}, {"measurement": "phosphorylation of FAK protein", "setting": "[4]", "value": "selectively reduced"}, {"measurement": "phosphorylation of EGFR", "setting": "[5]", "value": "not affected"}, {"measurement": "phosphorylation of Akt", "setting": "[6]", "value": "not affected"}, {"measurement": "late apoptotic cell population", "setting": "[7]; MDA-MB-231, 25–50 µM, 48 h, control 5.8%, mean of three experiments (Fig. 3c)", "value": "19.0–26.3%"}, {"measurement": "mode of cell death", "setting": "[7]; MDA-MB-231 cells, 24–48 h treatment", "value": "non-apoptotic regulated cell death"}, {"measurement": "IC50", "setting": "[8]", "value": "40.3 ± 2.11", "unit": "µM"}, {"measurement": "IC50", "setting": "[9]; Homo sapiens, 48 h exposure, MTT, read-out: Cell lines, IC50 (μM) HeLa", "value": "26.44 ± 0.04", "unit": "µM"}, {"measurement": "Selectivity Index (SI) values HeLa", "setting": "[9]; [17]", "value": 1.5}, {"measurement": "IC50", "setting": "[10]; Homo sapiens, H69AR, 48 h exposure, MTT, read-out: Cell lines, IC50 (μM) H69AR", "value": "94.6 ± 1.67", "unit": "µM"}, {"measurement": "Selectivity Index (SI) values H69AR", "setting": "[10]; [17]", "value": 0.4}, {"measurement": "IC50", "setting": "[11]; Homo sapiens, A549, 48 h exposure, MTT, read-out: Cell lines, IC50 (μM) A549", "value": "57.7 ± 1.2", "unit": "µM"}, {"measurement": "Selectivity Index (SI) values A549", "setting": "[11]; [17]", "value": 0.7}, {"measurement": "IC50", "setting": "[12]; Homo sapiens, HepG2, 48 h exposure, MTT, read-out: Cell lines, IC50 (μM) HepG2", "value": "73.5 ± 2.15", "unit": "µM"}, {"measurement": "Selectivity Index (SI) values HepG2", "setting": "[12]; [17]", "value": 0.5}, {"measurement": "IC50", "setting": "[13]; Homo sapiens, T47D, 48 h exposure, MTT, read-out: Cell lines, IC50 (μM) T47-D", "value": "66.1 ± 6.39", "unit": "µM"}, {"measurement": "Selectivity Index (SI) values T47-D", "setting": "[13]; [17]", "value": 0.6}, {"measurement": "IC50", "setting": "[14]; Homo sapiens, HuCC-A1, 48 h exposure, MTT, read-out: Cell lines, IC50 (μM) HuCCA-1", "value": "58.67 ± 0.13", "unit": "µM"}, {"measurement": "Selectivity Index (SI) values HuCCA-1", "setting": "[14]; [17]", "value": 0.7}, {"measurement": "IC50", "setting": "[15]; Homo sapiens, MDA-MB-231, 48 h exposure, MTT, read-out: Cell lines, IC50 (μM) MDA-MB-231", "value": "13.73 ± 0.04", "unit": "µM"}, {"measurement": "Selectivity Index (SI) values MDA-MB-231", "setting": "[15]; [17]", "value": 2.9}, {"measurement": "phosphorylation of ERK", "setting": "[16]", "value": "not affected"}]}
